# Data published in patent US12247008B2, “Multi-aziridine compound” (COVESTRO (NETHERLANDS) B.V., priority 2020, dated 2025).
# Tested on: Rtkn-GFP
# Assay: ToxTracker genotoxicity assay, Rtkn-GFP reporter induction
smiles,measurement,setting,value
CC1CN1CC(C)(C)OC(=O)NCCCCCCn1c(=O)n(CCCCCCNC(=O)OC(C)(C)CN2CC2C)c(=O)n(CCCCCCNC(=O)OC(C)(C)CN2CC2C)c1=O (stereo not drawn) [Ex. 1],Rtkn induction level,"with S9 rat liver extract, 3 h exposure and 24 h recovery, at 10% cytotoxicity",1.0 fold
same,Rtkn induction level,"with S9 rat liver extract, 3 h exposure and 24 h recovery, at 25% cytotoxicity",1.1 fold
same,Rtkn induction level,"with S9 rat liver extract, 3 h exposure and 24 h recovery, at 50% cytotoxicity",1.3 fold
same,Rtkn induction level,"without S9 rat liver extract, 24 h exposure, at 10% cytotoxicity",1.1 fold
same,Rtkn induction level,"without S9 rat liver extract, 24 h exposure, at 25% cytotoxicity",1.1 fold
same,Rtkn induction level,"without S9 rat liver extract, 24 h exposure, at 50% cytotoxicity",1.3 fold
